Results on 80 molecules are retold here after ChEMBL document CHEMBL3879893, “Nuclear transport modulators and uses thereof” (2011).

Calls of active or inactive are those of the source. The rule behind the calls is not given here. Bounds are passed on as bounds.

Experiment [1] deals with T1, Exportin-1 (Homo sapiens, UniProt O14980). In words: Inhibition of Crm1 in human U2OS cells expressing GFP-fused HIV1 Rev assessed as decrease in nuclear export of GFP-fused HIV1 Rev after 1 hr by Hoechst 33258 staining-based assay. In kind it is cell-based.
The target of experiment [2] is T1, Exportin-1. In words: Inhibition of Crm1 in human H929 cells assessed as decrease in nuclear export of topoisomerase-2 by measuring caspase-3 levels at 0.1 to 10 uM preincubated for 16 hrs followed by addition of topoisomerase-2 inhibitor doxorubicin measured after 4 hrs by anti-caspase-3 assay. In kind it is cell-based.
Experiment [3] can be described thus: Antitumor activity against 350 mm'3 human HCT116 cells xenografted in mouse assessed as tumor growth inhibition at 30 mg/kg, iv qd administered for 2 days measured after day 24 relative to control. Particulars: HCT-116, iv, read-out: TGI. The class given is functional. For orientation: A xenograft is tissue or cells of one species grown in another, often human tumour cells in immunodeficient mice.

T1 sequence (O14980 whole entry, the tested form may be a part): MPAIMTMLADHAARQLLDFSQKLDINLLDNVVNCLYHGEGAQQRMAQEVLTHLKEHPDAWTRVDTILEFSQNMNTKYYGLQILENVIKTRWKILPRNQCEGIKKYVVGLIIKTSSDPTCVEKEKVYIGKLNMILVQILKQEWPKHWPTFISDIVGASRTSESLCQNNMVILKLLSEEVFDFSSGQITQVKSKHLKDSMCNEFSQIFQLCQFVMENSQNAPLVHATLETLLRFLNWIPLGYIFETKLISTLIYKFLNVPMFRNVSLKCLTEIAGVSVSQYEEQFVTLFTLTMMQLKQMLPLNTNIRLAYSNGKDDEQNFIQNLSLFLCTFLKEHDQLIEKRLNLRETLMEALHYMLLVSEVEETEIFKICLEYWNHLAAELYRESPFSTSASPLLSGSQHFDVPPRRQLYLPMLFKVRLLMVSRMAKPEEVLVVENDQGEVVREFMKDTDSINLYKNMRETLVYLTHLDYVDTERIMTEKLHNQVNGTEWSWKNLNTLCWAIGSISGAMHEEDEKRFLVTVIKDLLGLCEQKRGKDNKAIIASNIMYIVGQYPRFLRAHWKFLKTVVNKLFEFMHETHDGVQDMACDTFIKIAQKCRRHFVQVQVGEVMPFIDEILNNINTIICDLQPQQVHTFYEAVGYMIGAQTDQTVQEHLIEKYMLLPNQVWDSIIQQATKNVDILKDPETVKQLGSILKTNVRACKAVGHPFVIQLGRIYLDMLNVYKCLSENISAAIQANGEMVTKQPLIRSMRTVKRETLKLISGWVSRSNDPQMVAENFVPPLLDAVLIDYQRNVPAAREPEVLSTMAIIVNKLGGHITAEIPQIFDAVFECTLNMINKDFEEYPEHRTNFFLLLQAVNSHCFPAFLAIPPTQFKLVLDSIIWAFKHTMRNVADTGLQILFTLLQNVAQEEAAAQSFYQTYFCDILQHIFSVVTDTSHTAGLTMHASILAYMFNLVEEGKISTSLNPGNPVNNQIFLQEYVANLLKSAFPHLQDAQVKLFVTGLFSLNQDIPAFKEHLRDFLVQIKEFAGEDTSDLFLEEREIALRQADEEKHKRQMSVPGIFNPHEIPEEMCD

`COc1cc(-c2ncn(/C=C\C(=O)OC3CNC3)n2)cc(C(F)(F)F)c1`: the IC50 in experiment [1] is no more than 1000 nM.
`O=C(/C=C\n1cnc(-c2cccc(Cl)c2)n1)OC1CCC1`: in experiment [1], the IC50 is no more than 1000 nM.
Turning to `COc1ccc(NC(=O)/C=C/n2cnc(-c3cccc(Cl)c3)n2)cc1`, in experiment [1], the IC50 is no less than 10000 nM.
On the same count and under the same terms, under `CC(C)(C)OC(=O)/C=C/n1cnc(-c2cccc(Cl)c2)n1` stands no less than 10000 nM.
For `CCOC(=O)/C=C\n1cnc(-c2cccc(Cl)c2)n1`, in experiment [1], the IC50 was no more than 1000 nM.
With `CC(C)OC(=O)/C=C\n1cnc(-c2cc(Cl)ccc2N)n1`, the IC50 in experiment [1] is no more than 1000 nM.
Still for that read-out and setting: under `CC(C)OC(=O)/C=C/n1cnc(-c2cc(OCCN(C)C)cc(C(F)(F)F)c2)n1` stands 1000 to 10000 nM.
Still for that read-out and setting: under `CC(C)OC(=O)/C=C\n1cnc(-c2cccc(C(F)(F)F)c2)n1` stands no more than 1000 nM; under `CC(C)Oc1cc(-c2ncn(/C=C\C(=O)OCc3ccccn3)n2)cc(C(F)(F)F)n1`, no more than 1000 nM.
With `O=C(/C=C\n1cnc(-c2cccc(Cl)c2)n1)OC1COC(=O)C1` (stereo unspecified), the IC50 in experiment [1] fell in the range of 1000 to 10000 nM.
Regarding `CNc1cc(Cl)cc(-c2ncn(/C=C\C(=O)OC(C)C)n2)c1`, the IC50 in experiment [1] was no more than 1000 nM.
Still for that read-out and setting: under `O=C(/C=C/n1cnc(-c2cccc(Cl)c2)n1)Nc1cccc(Cl)c1` stands no less than 10000 nM.
Same read-out and setting: under `CC(C)OC(=O)/C=C\n1cnc(-c2cc(C#N)cc(OC(C)C)c2)n1` stands no more than 1000 nM; under `O=C(/C=C\c1nnc(-c2cccc(Cl)c2)[nH]1)Nc1ccccc1`, no less than 10000 nM; under `CC(C)OC(=O)/C=C\c1n[nH]c(-c2cc(Cl)cc(Cl)c2)n1`, 1000 to 10000 nM.
Turning to `CC(C)OC(=O)/C=C\Cn1cnc(-c2cccc(Cl)c2)n1`, the IC50 in experiment [1] was 1000 to 10000 nM.
Turning to `N#C/C=C/n1cnc(-c2cccc(Cl)c2)n1`, the concentration for half-maximal inhibition (IC50) in experiment [1] was 1000 to 10000 nM.
For the molecule `CC(C)OC(=O)/C=C\c1n[nH]c(-c2cccc(Cl)c2)n1`, in experiment [1], the IC50 was no more than 1000 nM.
The same measure, in the same setting: under `CCOC(=O)/C=C\n1cnc(-c2cc(Cl)cc(Cl)c2)n1` stands no more than 1000 nM; under `O=C(/C=C\n1cnc(-c2cccc(Cl)c2)n1)NC1CCCC1`, no less than 10000 nM; under `CS(=O)(=O)/C=C\n1cnc(-c2cccc(Cl)c2)n1`, no more than 1000 nM.
On the same count and under the same terms, the figure for `CC(C)OC(=O)/C=C\n1cnc(-c2cc(OCCN3CCCC3)cc(C(F)(F)F)c2)n1` is no more than 1000 nM.
`CC(C)OC(=O)/C=C\n1cnc(-c2ccc(Cl)c(Cl)c2)n1`: the IC50 in experiment [1] was no more than 1000 nM.
With `CC(C)OC(=O)/C=C\n1cnc(-c2cc(NC3CCC3)nc(C(F)(F)F)c2)n1`, the IC50 in experiment [1] was no more than 1000 nM.
The same measure, in the same setting: under `COc1cc(Cl)cc(-c2ncn(/C=C\C(=O)OC(C)C)n2)c1` stands no more than 1000 nM; under `C[S+]([O-])/C=C\n1cnc(-c2cccc(Cl)c2)n1` (stereo unspecified), 1000 to 10000 nM; under `CC(C)OC(=O)/C=C\c1nnc(-c2cccc(F)c2)[nH]1`, 1000 to 10000 nM.
`CC(C)Nc1cc(-c2ncn(/C=C\C(=O)OC(C)C)n2)cc(Cl)n1`: the IC50 in experiment [1] was no more than 1000 nM.
On the same count and under the same terms, under `CC(C)OC(=O)/C=C\n1cnc(-c2csc(Br)n2)n1` stands 1000 to 10000 nM; under `O=C(/C=C\n1cnc(-c2cccc(Cl)c2)n1)OC1CCCC1`, no more than 1000 nM.
Still for that read-out and setting: the figure for `CC(C)OC(=O)/C=C\n1cnc(-c2cc(Cl)nc(OC(C)C)c2)n1` is no more than 1000 nM; for `O=C(/C=C\n1cnc(-c2cccc(Cl)c2)n1)OC1CCCCC1` it is no more than 1000 nM; for `O=C(/C=C\n1cnc(-c2cccc(Cl)c2)n1)OCC1CCCN1` (stereo unspecified) it is 1000 to 10000 nM.
Take `CC(C)OC(=O)/C=C\n1cnc(-c2cc(Cl)cc(OC(F)(F)F)c2)n1`: the IC50 in experiment [1] was no more than 1000 nM.
Same read-out and setting: the figure for `Nc1ccc(NC(=O)/C=C/n2cnc(-c3cccc(Cl)c3)n2)cc1` is no less than 10000 nM; for `CC(C)OC(=O)/C=C\n1cnc(-c2cncc(Cl)c2)n1` it is no more than 1000 nM; for `COc1ccc(-c2ncn(/C=C\C(=O)OC(C)C)n2)cc1Cl` it is 1000 to 10000 nM.
The same measure, in the same setting: the figure for `O=C(/C=C\n1cnc(-c2cccc(Cl)c2)n1)OCc1cnc[nH]1` is 1000 to 10000 nM; for `CCOC(=O)/C=C/n1cnc(-c2cccc(Cl)c2)n1` it is no less than 10000 nM; for `CC(C)OC(=O)/C=C\n1cnc(-c2cc(Cl)nc(Cl)c2)n1` it is no more than 1000 nM.
For `CC(C)(C)OC(=O)Nc1ccc(NC(=O)/C=C/n2cnc(-c3cccc(Cl)c3)n2)cc1`, in experiment [1], the IC50 was no less than 10000 nM.
As for `O=C(/C=C\n1cnc(-c2cc(Cl)nc(Cl)c2)n1)OC1CNC1`, in experiment [1], the IC50 is no more than 1000 nM.
On the same count and under the same terms, under `CC(C)OC(=O)/C=C\n1cnc(-c2csc(Cl)c2)n1` stands no more than 1000 nM; under `CC(C)Nc1cc(-c2ncn(/C=C\C(=O)OC(C)C)n2)cc(C(F)(F)F)n1`, no more than 1000 nM.
On to `CC(C)OC(=O)/C=C\n1cnc(-c2cccc(Cl)c2)n1`, for which, in experiment [1], the IC50 is no more than 1000 nM. Besides, the inhibition entry in experiment [2] is “Active”.
Turning to `CC(C)OC(=O)/C=C\n1cnc(-c2cc(Cl)cc(Oc3ccc(Cl)cc3)c2)n1`, in experiment [1], the IC50 was 1000 to 10000 nM.
The same measure, in the same setting: under `CC(C)Oc1cc(-c2ncn(/C=C\C(=O)OCc3ccccn3)n2)cc(C(F)(F)F)c1` stands no more than 1000 nM; under `O=C(/C=C/n1cnc(-c2cccc(Cl)c2)n1)OC1CNC1`, 1000 to 10000 nM.
On to `CCc1c2c(nc3ccc(OC(=O)N4CCC(N5CCCCC5)CC4)cc13)-c1cc3c(c(=O)n1C2)COC(=O)[C@]3(O)CC` [IRINOTECAN], for which, in experiment [3], the inhibition in vivo at 30 mg/kg was determined as 78%.
With `CC(C)OC(=O)/C=C\n1cnc(-c2csc(Cl)n2)n1`, in experiment [1], the IC50 was 1000 to 10000 nM.
Same read-out and setting: under `O=C(/C=C\n1cnc(-c2cccc(Cl)c2)n1)OC1CCOC1` (stereo unspecified) stands no more than 1000 nM; under `CC(C)OC(=O)/C=C\n1cnc(-c2cc(OC(C)C)cc(C(F)(F)F)c2)n1`, no more than 1000 nM.
Same read-out and setting: under `CC(C)OC(=O)/C=C\n1cnc(-c2cc(OC(C)C)nc(C(F)(F)F)c2)n1` stands no more than 1000 nM; under `CC(C)OC(=O)/C=C\n1cnc(-c2cc(O/C=C/C(=O)OC(C)C)cc(C(F)(F)F)c2)n1`, 1000 to 10000 nM.
The same measure, in the same setting: under `Cc1cccc(-c2ncn(/C=C\C(=O)OC(C)C)n2)c1` stands no more than 1000 nM; under `COc1cc(OC)cc(-c2ncn(/C=C\C(=O)OC(C)C)n2)c1`, no more than 1000 nM.
In the case of `CC(C)OC(=O)/C=C\n1cnc(-c2ccc(-c3ccccc3)c(F)c2)n1`, the IC50 in experiment [1] was no less than 10000 nM.
Still for that read-out and setting: the figure for `COc1cc(-c2ncn(/C=C\C(=O)OC(C)C)n2)cc(Cl)n1` is no more than 1000 nM; for `CC(C)OC(=O)/C=C\n1cnc(-c2ccc(Oc3ccc(Cl)cc3)cc2)n1` it is 1000 to 10000 nM; for `COc1ccc(Cl)cc1-c1ncn(/C=C\C(=O)OC(C)C)n1` it is no more than 1000 nM.
On to `CC(C)(C)OC(=O)/C=C\n1cnc(-c2cccc(Cl)c2)n1`, for which the IC50 in experiment [1] lay in the range of 1000 to 10000 nM.
On the same count and under the same terms, under `COC(=O)/C=C\n1cnc(-c2cc(Cl)cc(OC)c2)n1` stands no more than 1000 nM; under `CCOC(=O)/C=C\n1cnc(-c2cc(F)cc(F)c2)n1`, 1000 to 10000 nM.
Turning to `CC(C)OC(=O)/C=C/n1cnc(-c2cc(OCCN3CCCC3)cc(C(F)(F)F)c2)n1`, the IC50 in experiment [1] was no less than 10000 nM.
Still for that read-out and setting: the figure for `COCCOc1cc(Cl)cc(-c2ncn(/C=C\C(=O)OC(C)C)n2)c1` is no more than 1000 nM; for `CC(C)OC(=O)/C=C\n1cnc(-c2cc(Cl)cc(OC(C)C)c2)n1` it is no more than 1000 nM.
On to `CC(C)OC(=O)/C=C/n1cnc(-c2cccc(Cl)c2)n1`, for which, in experiment [1], the IC50 is no less than 10000 nM.
Take `O=C(/C=C\n1cnc(-c2cccc(Cl)c2)n1)OC1COC1`: in experiment [1], the half-inhibitory concentration (IC50) was no more than 1000 nM.
Still for that read-out and setting: under `O=C(/C=C\n1cnc(-c2cccc(Cl)c2)n1)OCc1ccccn1` stands no more than 1000 nM; under `CC(C)OC(=O)/C=C\n1cnc(-c2cc(OCCN(C)C)cc(C(F)(F)F)c2)n1`, no more than 1000 nM.
On the same count and under the same terms, the figure for `FC(F)(F)/C=C\n1cnc(-c2cccc(Cl)c2)n1` is 1000 to 10000 nM.
`COc1cc(-c2ncn(/C=C\C(=O)OC(C)C)n2)cc(C(F)(F)F)c1`: the IC50 in experiment [1] is no more than 1000 nM.
As to `CC(C)OC(=O)/C=C/Cn1cnc(-c2cccc(Cl)c2)n1`, the IC50 in experiment [1] is 1000 to 10000 nM.
On the same count and under the same terms, the figure for `N#C/C=C\n1cnc(-c2cccc(Cl)c2)n1` is no more than 1000 nM.
On to `O=C(/C=C\n1cnc(-c2cccc(Cl)c2)n1)OC1CNC1`, for which the IC50 in experiment [1] is no more than 1000 nM.
On the same count and under the same terms, under `O=C(/C=C\n1cnc(-c2cccc(Cl)c2)n1)N1CCC1` stands no more than 1000 nM; under `O=C(/C=C\n1cnc(-c2cccc(Cl)c2)n1)OC1CCOCC1`, no more than 1000 nM; under `CCOC(=O)/C=C\n1cnc(-c2cc(Cl)cc(OC)c2)n1`, no more than 1000 nM.
For the molecule `CN(C(=O)/C=C\c1nnc(-c2cccc(Cl)c2)[nH]1)c1ccccc1`, in experiment [1], the IC50 is no less than 10000 nM.
Still for that read-out and setting: under `CC(C)Oc1cc(-c2ncn(/C=C\C#N)n2)cc(C(F)(F)F)c1` stands no more than 1000 nM.

A word on the IC50: it is the point on the concentration scale where inhibition reaches its midpoint.
